Results as given in paper PMC8538066, “Purification and Identification of Novel Xanthine Oxidase Inhibitory Peptides Derived from Round Scad (Decapterus maruadsi) Protein Hydrolysates” (Marine Drugs, 2021).
Marks after values point to notes of the source that are not given here.

How the values were obtained:
[1] = target: T1, xanthine oxidase (XO) (Bos taurus, UniProt P80457); assay: Fluorescence quenching of XO (Stern-Volmer analysis); format: binding; conditions: for Kq (quenching rate constant) / Ksv (Stern-Volmer quenching constant): T 298 K; for Kq (quenching rate constant): Kq = Ksv/τ0, τ0 approximately 10^−8 s; for Ksv (Stern-Volmer quenching constant): XO 0.05 U/mL, peptide 0 to 20.0 × 10^−4 M, excitation 280 nm; for fluorescence quenching mechanism of XO: from Kq versus the collisional quenching threshold
T1 construct: purchased Sigma Chemical Co. (St. Louis, MO, USA)
Experimental: Fluorescence spectra were measured on an F-7000 Spectrofluorimeter (Hitachi Ltd., Ibaraki, Japan) with a 1.0 cm quartz cell and a thermostatic bath. Briefly, 2 mL XO (0.05 U/mL) was titrated by continuous addition of peptides solution (to final concentrations ranging from 0 to 20.0 × 10^−4 M). Then, the obtained mixture was properly mixed and equilibrated for 5 min. The slit widths for excitation and emission were set to 2.5 nm. The fluorescence emission spectra were then measured in the emission wavelength range from 300 to 500 nm, under 280 nm excitation wavelengths. The following Stern-Volmer equation was used to analyze the fluorescence quenching:F0/F = 1 + Ksv [C] = 1 + Kq τ0 [C](3) where F0 and F represent the steady-state fluorescence intensities in the absence and presence of quencher, respectively. Ksv is the Stern-Volmer quenching constant. [C] is the quencher concentration. Kq is the quenching rate constant of biomolecule. Kq = Ksv/τ0, τ0 is the average lifetime of biomolecule in the absence of quencher and its value is approximately 10^−8 s. Ksv used to be estimated by linear regression plot slope of F0/F versus.

[2] = target: T1, xanthine oxidase (XO); assay: Reversibility and type of XO inhibition (v vs enzyme plots; Lineweaver-Burk plots); format: biochemical; conditions: for type of XO inhibition: Lineweaver-Burk, peptide 0 and 5 mM, XO 0.05 U/mL, xanthine 0-0.4 mM, Km increased, Vmax decreased; for reversibility of XO inhibition: inhibitor 0, 5, 10 and 20 mM, XO 0 to 0.1 U/mL, xanthine 0.4 mM, 37 °C 30 min, pH 7.5
Experimental: The plots of ν (ΔOD290nm/min) versus the XO (U/mL) at different concentrations of the inhibitors (peptides) were constructed to determine the reversibility of inhibitory behavior on XO [29]. All samples were dissolved in 20 mM sodium carbonate buffer (pH 7.5). Inhibitor solution (0, 5, 10 and 20 mM) and XO solution (from 0 to 0.1 U/mL) were mixed and incubated at 37 °C for 30 min, and the concentration of the substrate xanthine was kept constant at 0.4 mM. The absorbance at 290 nm was then determined. ν is the initial enzymatic reaction rate of the reaction, which was investigated using the same method for the XO inhibitory activity assay.
The type of the inhibition of XO activity by the inhibitors (peptides) was investigated using Lineweaver and Burk kinetic analysis. It was performed via evaluating the initial rate of reaction in the presence and absence of inhibitors at different xanthine concentration. Briefly, the peptide (0 and 5 mM) and XO (0.05 U/mL) were mixed and incubated in the buffer (20 mM sodium carbonate buffer, pH 7.5) for 30 min at 37 °C. Subsequently, different xanthine concentrations (0, 0.05, 0.1, 0.2 and 0.4 mM) were successively added into the solutions. Then, the dynamic changes of the absorbance at 290 nm were recorded, and ν was calculated using the same method above. Km and Vmax values, as corresponding kinetic parameters, were obtained from the Lineweaver and Burk double reciprocal plots.

[3] = target: T1, xanthine oxidase (XO); assay: XO inhibitory activity assay (rate of uric acid formation, absorbance 290 nm); format: biochemical; conditions: peptide 5 mM; XO 0.05 U/mL, pre-incubation 37 °C 30 min, xanthine 0.42 mM, 20 mM sodium carbonate buffer pH 7.5, 290 nm; each sample tested three times
Experimental: The XO inhibitory activity was measured by quantifying the rate of uric acid produced in the enzyme-catalyzed reaction. All samples were dissolved in 20 mM sodium carbonate buffer at pH 7.5. […] During the reaction, the dynamic changes of the absorbance of the sample were continuously recorded at 290 nm. Each sample was tested three times. The XO inhibitory activity was calculated using the following formula:Inhibition (%) = (V1 − V2)/V1 × 100%(1) where V1 is the initial enzymatic reaction rate of the blank group, V2 is the initial enzymatic reaction rate of sample group.

[4] = target: Xanthine oxidase (UniProt P80457)
[5] = target: Xanthine oxidase (UniProt P80457); assay: other fluorescence titration; quenching of the intrinsic fluorescence of XO (2 mL, 0.05 U/mL) titrated with peptide to 0-20.0 x 10^-4 M; equilibrated 5 min; excitation 280 nm, emission 300-500 nm; 298 K; Stern-Volmer analysis

Sequence of Xanthine oxidase (P80457 2-1332): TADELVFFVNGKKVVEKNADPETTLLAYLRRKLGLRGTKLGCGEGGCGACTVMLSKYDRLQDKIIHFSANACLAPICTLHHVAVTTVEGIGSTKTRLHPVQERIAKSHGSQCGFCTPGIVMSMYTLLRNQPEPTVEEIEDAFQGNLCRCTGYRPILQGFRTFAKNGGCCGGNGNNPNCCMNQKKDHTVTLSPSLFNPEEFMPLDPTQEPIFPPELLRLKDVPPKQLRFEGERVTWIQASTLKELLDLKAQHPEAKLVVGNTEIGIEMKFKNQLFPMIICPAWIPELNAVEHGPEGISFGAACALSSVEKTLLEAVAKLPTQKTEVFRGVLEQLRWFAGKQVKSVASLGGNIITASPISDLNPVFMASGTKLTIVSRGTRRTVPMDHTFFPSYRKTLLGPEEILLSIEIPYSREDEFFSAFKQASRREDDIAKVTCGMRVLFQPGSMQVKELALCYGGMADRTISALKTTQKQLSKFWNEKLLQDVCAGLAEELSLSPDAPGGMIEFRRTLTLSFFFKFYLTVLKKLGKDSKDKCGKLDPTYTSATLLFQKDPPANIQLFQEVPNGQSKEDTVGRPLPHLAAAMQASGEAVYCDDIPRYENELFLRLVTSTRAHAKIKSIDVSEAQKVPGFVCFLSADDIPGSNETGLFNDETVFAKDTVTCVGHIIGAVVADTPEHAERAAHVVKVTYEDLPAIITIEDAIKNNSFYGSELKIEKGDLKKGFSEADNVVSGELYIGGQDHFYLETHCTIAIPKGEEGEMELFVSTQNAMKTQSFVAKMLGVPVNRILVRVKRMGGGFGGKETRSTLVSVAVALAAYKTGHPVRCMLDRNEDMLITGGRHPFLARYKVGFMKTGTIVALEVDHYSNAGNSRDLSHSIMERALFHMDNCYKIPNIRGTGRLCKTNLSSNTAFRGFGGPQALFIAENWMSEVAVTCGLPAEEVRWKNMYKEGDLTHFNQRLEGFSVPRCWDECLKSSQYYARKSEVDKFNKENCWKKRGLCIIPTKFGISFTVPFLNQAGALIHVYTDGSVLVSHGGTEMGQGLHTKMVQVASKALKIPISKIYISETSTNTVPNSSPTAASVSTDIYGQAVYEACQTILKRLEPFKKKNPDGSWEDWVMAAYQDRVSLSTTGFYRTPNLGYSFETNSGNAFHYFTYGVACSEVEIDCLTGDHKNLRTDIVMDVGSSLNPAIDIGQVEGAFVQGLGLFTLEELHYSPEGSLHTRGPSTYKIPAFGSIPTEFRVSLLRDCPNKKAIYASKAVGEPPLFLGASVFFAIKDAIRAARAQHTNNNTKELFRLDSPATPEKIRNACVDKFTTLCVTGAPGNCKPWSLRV
T1 sequence (P80457 whole entry): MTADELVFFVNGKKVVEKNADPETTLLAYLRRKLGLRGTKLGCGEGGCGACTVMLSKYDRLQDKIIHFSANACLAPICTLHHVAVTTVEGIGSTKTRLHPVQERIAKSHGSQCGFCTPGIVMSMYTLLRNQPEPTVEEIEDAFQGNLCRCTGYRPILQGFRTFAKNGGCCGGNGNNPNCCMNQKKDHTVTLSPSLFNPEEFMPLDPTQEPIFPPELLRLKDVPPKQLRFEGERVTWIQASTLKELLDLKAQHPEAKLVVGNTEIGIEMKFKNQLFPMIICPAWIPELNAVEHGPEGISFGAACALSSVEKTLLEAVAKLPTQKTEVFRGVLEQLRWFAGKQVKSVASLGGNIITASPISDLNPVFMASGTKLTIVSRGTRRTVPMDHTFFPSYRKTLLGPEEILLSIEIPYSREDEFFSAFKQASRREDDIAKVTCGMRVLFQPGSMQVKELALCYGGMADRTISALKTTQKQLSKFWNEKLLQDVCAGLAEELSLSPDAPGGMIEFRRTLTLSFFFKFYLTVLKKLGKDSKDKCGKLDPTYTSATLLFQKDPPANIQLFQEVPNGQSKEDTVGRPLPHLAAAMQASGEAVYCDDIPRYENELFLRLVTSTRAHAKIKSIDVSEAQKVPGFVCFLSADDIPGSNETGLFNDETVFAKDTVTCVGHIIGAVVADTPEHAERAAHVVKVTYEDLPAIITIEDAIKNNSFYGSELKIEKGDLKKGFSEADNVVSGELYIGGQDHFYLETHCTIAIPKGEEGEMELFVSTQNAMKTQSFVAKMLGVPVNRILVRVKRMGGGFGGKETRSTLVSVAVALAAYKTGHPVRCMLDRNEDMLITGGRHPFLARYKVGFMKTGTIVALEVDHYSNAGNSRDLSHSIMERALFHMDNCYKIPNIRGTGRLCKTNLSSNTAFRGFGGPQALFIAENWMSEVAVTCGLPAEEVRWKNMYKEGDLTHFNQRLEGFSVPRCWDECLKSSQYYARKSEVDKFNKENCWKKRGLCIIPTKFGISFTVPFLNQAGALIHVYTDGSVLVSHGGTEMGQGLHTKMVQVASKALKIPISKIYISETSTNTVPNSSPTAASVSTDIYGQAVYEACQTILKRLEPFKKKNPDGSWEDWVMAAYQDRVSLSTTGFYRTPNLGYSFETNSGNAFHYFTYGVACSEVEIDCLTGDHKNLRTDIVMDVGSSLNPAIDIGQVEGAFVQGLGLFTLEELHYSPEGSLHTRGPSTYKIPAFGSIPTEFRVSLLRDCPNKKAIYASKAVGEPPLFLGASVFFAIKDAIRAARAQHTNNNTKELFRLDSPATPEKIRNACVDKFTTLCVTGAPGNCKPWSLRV

## FPFP [tetrapeptide identified from round scad hydrolysate fraction F2, chemically synthesized]
[1]
  Kq (quenching rate constant): 5.608e+11 M⁻¹ s⁻¹
  Ksv (Stern-Volmer quenching constant): 5608 M⁻¹
  fluorescence quenching mechanism of XO: static
[2]
  type of XO inhibition: mixed inhibitor
  reversibility of XO inhibition: reversible
[3]
  XO Inhibitory Activity (%): 20.09 ± 2.41 ^a %

## FPSV [tetrapeptide identified from round scad hydrolysate fraction F2, chemically synthesized]
[1]
  Kq (quenching rate constant): 5.42e+10 M⁻¹ s⁻¹
  Ksv (Stern-Volmer quenching constant): 542 M⁻¹
  fluorescence quenching mechanism of XO: static
[2]
  type of XO inhibition: mixed inhibitor
  reversibility of XO inhibition: reversible
[3]
  XO Inhibitory Activity (%): 22.61 ± 1.81 ^a %

## KGFP [tetrapeptide identified from round scad hydrolysate fraction F2, chemically synthesized]
[3]
  XO Inhibitory Activity (%): 5.43 ± 0.20 ^c %

## WPDGR [pentapeptide identified from round scad hydrolysate fraction F2, chemically synthesized]
[3]
  XO Inhibitory Activity (%): 16.21 ± 0.78 ^b %

## FPFP
[4]
  XO inhibitory activity (%) at 5 mM peptide (rate of uric acid formation, absorbance at 290 nm): 20.1%
[5]
  Kq (quenching rate constant): 5.61e+11 M⁻¹ s⁻¹
  Ksv (Stern-Volmer quenching constant): 5610 M⁻¹

## FPSV
[4]
  XO inhibitory activity (%) at 5 mM peptide (rate of uric acid formation, absorbance at 290 nm): 22.6%
[5]
  Kq (quenching rate constant): 5.42e+10 M⁻¹ s⁻¹
  Ksv (Stern-Volmer quenching constant): 542 M⁻¹

## WPDGR
[4]
  XO inhibitory activity (%) at 5 mM peptide (rate of uric acid formation, absorbance at 290 nm): 16.2%

## KGFP
[4]
  XO inhibitory activity (%) at 5 mM peptide (rate of uric acid formation, absorbance at 290 nm): 5.43%
